According to US4499091A, “1-Amino (or substituted amino)-1,4-dihydro-4-oxo-6-fluoro-7-heterylquinoline-3-carboxylic acids and their use as antibacterial agents” (Sterling Drug Inc., priority 1983, dated 1985):
Values after ≈ are worked out from the molar mass of the structure shown. Where two headings read alike, the source gives them in different places.

Tests used:
Escherichia coli Vogel [1] = assay: in vitro antibacterial activity, serial dilution (MIC); assay type: cell-based; conditions: 18-20 hours static incubation, read-out: Minimal Inhibitory Concentration (MIC)
Procedure: (§1) The in vitro antibacterial activity of the compounds of the invention was determined by conventional serial dilution procedures. Bacterial cultures were grown in tryptose phosphate broth or brain heart infusion broth (containing heat-inactivated normal horse serum for tests with S. pyogenes) overnight at 37° C. and subsequently diluted in double strength broth to provide bacterial inocula of about 2×10^5 cells/ml. Aqueous solutions of the compounds of the invention were prepared by dissolving the free acid form in 0.5N sodium hydroxide. The solutions were diluted with sterile distilled water to 1000 mcg/ml of compound in terms of the free acid. Serial two-fold dilutions of the compound stock solutions were prepared in water and 0.5 ml of each dilution was transferred to sets of tubes, one set for each bacterial inoculum.

Proteus mirabilis MGH-1 = assay: as above; assay type: cell-based; conditions: MGH1, 18-20 hours static incubation, read-out: Minimal Inhibitory Concentration (MIC)
Procedure: as §1

[2] = tested on: Klebsiella pneumoniae 39645; assay: as above; assay type: cell-based; conditions: 18-20 hours static incubation, read-out: Minimal Inhibitory Concentration (MIC)
Procedure: as §1

[3] = tested on: Klebsiella pneumoniae 39645; assay: in vivo antibacterial activity in mice infected with K. pneumoniae (PD50); parameters: species or system mouse (female) infected with Klebsiella pneumoniae
Procedure: (§2) The in vivo antibacterial activity of the compounds of the invention was determined in female mice, 18-20 grams each, by the following procedure:
(§3) Aqueous solutions of the compounds to be tested were prepared by dissolving the free acid form in dilute sodium hydroxide and diluting the solution with distilled water to be desired volume.
(§4) Cultures of Escherichia coli Vogel prepared in brain heart infusion broth, cultures of Klebsiella pneumoniae 39645 grown in tryptose phosphate broth with 5% rabbit serum diluted in the same broth and cultures of Pseudomonas aeruginosa MGH-2 grown on brain heart infusion agar and suspended in physiological saline, were used to infect the mice as follows:
K. pneumoniae: mice were inoculated intramuscularly in the right hind leg with 0.2 ml of the bacterial test inoculum (2.05×10^4 cells/ml).
Mice infected with K. pneumoniae were medicated at the following times: seventeen hours and one hour preinfection, six hours postinfection and twice a day for the next three days. The test compound was administered by both subcutaneous (0.2 ml) and oral (0.5 ml) routes. Deaths were recorded daily for fourteen days.
(§5) Groups of ten animals each for four or five dose levels were thus treated and the number of survivors in each group recorded. The fifty percent protective dose values (PD50) were then calculated.

Escherichia coli Vogel [4] = assay: in vivo antibacterial activity in mice infected with E. coli (PD50); parameters: species or system mouse (female) infected with Escherichia coli; conditions: 168 h
Procedure: as §2, §3, §4
Mice infected with E. coli were medicated once (0.5 ml) one-half hour post infection, the test compound being administered by either the subcutaneous (s.c.) or oral (p.o.) route. Deaths were recorded daily for seven days.
as §5

[5] = tested on: Streptococcus pyogenes C203; assay: in vitro antibacterial activity, serial dilution (MIC); assay type: cell-based; conditions: 18-20 hours static incubation, read-out: Minimal Inhibitory Concentration (MIC)
Procedure: as §1

Proteus vulgaris 9920 = assay: as above; assay type: cell-based; conditions: 18-20 hours static incubation, read-out: Minimal Inhibitory Concentration (MIC)
Procedure: as §1

[6] = tested on: Staphylococcus aureus Smith; assay: as above; assay type: cell-based; conditions: 18-20 hours static incubation, read-out: Minimal Inhibitory Concentration (MIC)
Procedure: as §1

[7] = tested on: Pseudomonas aeruginosa MGH-2; assay: as above; assay type: cell-based; conditions: MGH2, 18-20 hours static incubation, read-out: Minimal Inhibitory Concentration (MIC)
Procedure: as §1

[8] = Klebsiella pneumoniae, 39645, sc, 336 h, mouse, K. pneumoniae, s.c., pre- and postinfection, 14 days, read-out: Protective Dose (PD50)
[9] = sc, mouse, E. coli, s.c., once one-half hour post infection, 7 days, read-out: Protective Dose (PD50)

Structure (SMILES)	MIC (Escherichia coli Vogel [1]) [µg/mL]	MIC (Proteus mirabilis MGH-1) [µg/mL]	MIC [2] [µg/mL]	ED50 ([3]; Klebsiella pneumoniae, 39645, 336 h, mouse, K. pneum., route not stated, read-out: fifty percent protective dose) [mg/kg]	ED50 (Escherichia coli Vogel [4]; mouse, E. coli, route not stated, read-out: fifty percent protective dose) [mg/kg]	MIC [5] [µg/mL]	MIC (Proteus vulgaris 9920) [µg/mL]	MIC [6] [µg/mL]	MIC [7] [µg/mL]	ED50 ([3]; Klebsiella pneumoniae, 39645, po, 336 h, mouse, K. pneumoniae, p.o., pre- and postinfection, 14 days, read-out: Protective Dose (PD50)) [mg/kg]	ED50 [3, 8] [mg/kg]	ED50 ([3]; Klebsiella pneumoniae, 39645, sc, 336 h, read-out: Protective Dose (PD50)) [mg/kg]	ED50 (Escherichia coli Vogel [4]; sc, read-out: Protective Dose (PD50)) [mg/kg]	ED50 (Escherichia coli Vogel [4]; [9]) [mg/kg]
CNn1cc(C(=O)O)c(=O)c2cc(F)c(N3CC[N+](C)([O-])CC3)cc21 [4'-oxide]	16 (≈ 45.7 µM)	32 (≈ 91.3 µM)	32 (≈ 91.3 µM)											
CNn1cc(C(=O)O)c(=O)c2cc(F)c(Cl)cc21 [7-Chloro-6-fluoro-1,4-dihydro-1-methylamino-4-oxo-3-quinolinecarboxylic acid]	1 (≈ 3.69 µM)	1 (≈ 3.69 µM)	1.95 (≈ 7.2 µM)	186	56									
CCCNn1cc(C(=O)O)c(=O)c2cc(F)c(Cl)cc21 [7-Chloro-6-fluoro-1,4-dihydro-4-oxo-1-propylamino-3-quinolinecarboxylic acid]	15.6 (≈ 52.2 µM)		31.3 (≈ 105 µM)			15.6 (≈ 52.2 µM)	3.9 (≈ 13.1 µM)	15.6 (≈ 52.2 µM)						
CNn1cc(C(=O)O)c(=O)c2cc(F)c(N3CCN(C)CC3)cc21 [Example 1, 6-Fluoro-1,4-dihydro-1-methylamino-7-(4-methyl-1-piperazinyl)-4-oxo-3-quinolinecarboxylic acid]	0.25 (≈ 0.748 µM)	0.5 (≈ 1.5 µM)	0.25 (≈ 0.748 µM)				0.125 (≈ 0.374 µM)		1 (≈ 2.99 µM)	10.6	8.8			
Nn1cc(C(=O)O)c(=O)c2cc(F)c(N3CCNCC3)cc21 [Example 2, 1-Amino-6-fluoro-1,4-dihydro-4-oxo-7-(1-piperazinyl)-3-quinolinecarboxylic acid]								31.3 (≈ 102 µM)	62.5 (≈ 204 µM)			> 200	> 200	
CN1CCN(c2cc3c(cc2F)c(=O)c(C(=O)O)cn3N)CC1 [Example 3, 1-Amino-6-fluoro-1,4-dihydro-4-oxo-7-(4-methyl-1-piperazinyl)-3-quinolinecarboxylic acid]	2 (≈ 6.24 µM)	2 (≈ 6.24 µM)	2 (≈ 6.24 µM)			62.5 (≈ 195 µM)	1 (≈ 3.12 µM)		15.6 (≈ 48.7 µM)		30.5			3.13
CCNn1cc(C(=O)O)c(=O)c2cc(F)c(N3CCN(C)CC3)cc21 [Example 5, 1-Ethylamino-6-fluoro-1,4-dihydro-7-(4-methyl-1-piperazinyl)-4-oxo-3-quinolinecarboxylic acid]	0.5 (≈ 1.44 µM)		0.5 (≈ 1.44 µM)			31.3 (≈ 89.8 µM)	0.25 (≈ 0.718 µM)				90			4.1
CN1CCN(c2cc3c(cc2F)c(=O)c(C(=O)O)cn3N(C)C)CC1 [Example 7, 6-Fluoro-1-dimethylamino-1,4-dihydro-7-(4-methyl-1-piperazinyl)-4-oxo-3-quinolinecarboxylic acid]	0.5 (≈ 1.44 µM)	2 (≈ 5.74 µM)	2 (≈ 5.74 µM)			31.3 (≈ 89.8 µM)	0.12 (≈ 0.344 µM)		2 (≈ 5.74 µM)		29			1.66
CCN1CCN(c2cc3c(cc2F)c(=O)c(C(=O)O)cn3NC)CC1 [Example 8, 7-(4-Ethyl-1-piperazinyl)-6-fluoro-1,4-dihydro-1-methylamino-4-oxo-3-quinolinecarboxylic acid]	0.5 (≈ 1.44 µM)	1 (≈ 2.87 µM)	0.5 (≈ 1.44 µM)				0.25 (≈ 0.718 µM)	1 (≈ 2.87 µM)	2 (≈ 5.74 µM)		15.1			1.4
CCOC(=O)c1cn(NC)c2cc(N3CCN(C)CC3)c(F)cc2c1=O [Example 9, Ethyl 6-fluoro-1,4-dihydro-1-methylamino-7-(4-methyl-1-piperazinyl)-4-oxo-3-quinolinecarboxylate]	62.5 (≈ 172 µM)	12.5 (≈ 34.5 µM)	62.5 (≈ 172 µM)				31.3 (≈ 86.4 µM)				> 200			4.4
CCCN1CCN(c2cc3c(cc2F)c(=O)c(C(=O)O)cn3NC)CC1 [Example 11, 6-Fluoro-1,4-dihydro-1-methylamino-4-oxo-7-(4-propyl-1-piperazinyl)-3-quinolinecarboxylic acid]	0.25 (≈ 0.69 µM)	1 (≈ 2.76 µM)	0.5 (≈ 1.38 µM)				0.25 (≈ 0.69 µM)	1.95 (≈ 5.38 µM)			81.5			14.8
C=CCNn1cc(C(=O)O)c(=O)c2cc(F)c(N3CCN(C)CC3)cc21 [Example 12, 6-Fluoro-1,4-dihydro-7-(4-methyl-1-piperazinyl)-4-oxo-1-(2-propenylamino)-3-quinolinecarboxylic acid]	1 (≈ 2.77 µM)		1.95 (≈ 5.41 µM)			62.5 (≈ 173 µM)	1 (≈ 2.77 µM)		15.6 (≈ 43.3 µM)		141			18.9
CNn1cc(C(=O)O)c(=O)c2cc(F)c(N3CCOCC3)cc21 [Example 13, 6-Fluoro-1,4-dihydro-1-methylamino-7-(4-morpholinyl)-4-oxo-3-quinolinecarboxylic acid]	0.5 (≈ 1.56 µM)		1.95 (≈ 6.07 µM)			15.6 (≈ 48.6 µM)	0.125 (≈ 0.389 µM)	1 (≈ 3.11 µM)	15.6 (≈ 48.6 µM)		200			16.3
CNn1cc(C(=O)O)c(=O)c2cc(F)c(N3CCN(C(C)=O)CC3)cc21 [Example 14, 7-(4-Acetyl-1-piperazinyl)-6-fluoro-1,4-dihydro-1-methylamino-4-oxo-3-quinolinecarboxylic acid]	15.6 (≈ 43.1 µM)	15.6 (≈ 43.1 µM)				31.3 (≈ 86.4 µM)	1.95 (≈ 5.38 µM)		62.5 (≈ 172 µM)		100			100
CNn1cc(C(=O)O)c(=O)c2cc(F)c(N3CCCCC3)cc21 [Example 15, 6-Fluoro-1,4-dihydro-1-methylamino-4-oxo-7-(1-piperidinyl)-3-quinolinecarboxylic acid]							0.5 (≈ 1.57 µM)	1.95 (≈ 6.11 µM)			> 200			> 200
CNn1cc(C(=O)O)c(=O)c2cc(F)c(N3CCCC3)cc21 [Example 16, 6-Fluoro-1,4-dihydro-1-methylamino-4-oxo-7-(1-pyrrolidinyl)-3-quinolinecarboxylic acid]	1 (≈ 3.28 µM)						0.5 (≈ 1.64 µM)	0.5 (≈ 1.64 µM)			> 200			> 200
CNn1cc(C(=O)O)c(=O)c2cc(F)c(N3CCC(O)CC3)cc21 [Example 17, 6-Fluoro-1,4-dihydro-7-(4-hydroxy-1-piperidinyl)-1-methylamino-4-oxo-3-quinolinecarboxylic acid]	1.95 (≈ 5.82 µM)					31.3 (≈ 93.3 µM)	0.125 (≈ 0.373 µM)	1.95 (≈ 5.82 µM)			200			12.5
CNn1cc(C(=O)O)c(=O)c2cc(F)c(N3CCCC(O)C3)cc21 (centres unmarked) [Example 18, 6-Fluoro-1,4-dihydro-7-(3-hydroxy-1-piperidinyl)-1-methylamino-4-oxo-3-quinolinecarboxylic acid]						15.6 (≈ 46.5 µM)	0.25 (≈ 0.746 µM)	1.95 (≈ 5.82 µM)	31.3 (≈ 93.3 µM)		> 200			38
CNn1cc(C(=O)O)c(=O)c2cc(F)c(N3CCCNCC3)cc21 [Example 19, 6-Fluoro-7-(hexahydro-1H-1,4-diazapin-1-yl)-1,4-dihydro-1-methylamino-4-oxo-3-quinolinecarboxylic acid]		1.95 (≈ 5.83 µM)	15.6 (≈ 46.7 µM)			31.3 (≈ 93.6 µM)	1 (≈ 2.99 µM)				> 50			2.5
CN1CCN(c2cc3c(cc2F)c(=O)c(C(=O)O)cn3N(C)C=O)CC1 [Example 23, 6-Fluoro-1-(N-formylmethylamino)-1,4-dihydro-7-(4-methyl-1-piperazinyl)-4-oxo-3-quinolinecarboxylic acid]	1.95 (≈ 5.38 µM)		1.95 (≈ 5.38 µM)				1 (≈ 2.76 µM)	15.6 (≈ 43.1 µM)			> 200			10.4
